Experimental data as given in patent US20260184707A1, “PHARMACEUTICAL COMPOUNDS FOR THE TREATMENT OF COMPLEMENT MEDIATED DISORDERS” (ALEXION PHARMACEUTICALS, INC., priority 2022, published 2026).
pIC50: −log10 of the molar value.

These molecules were tested against T1, Human complement C1s enzyme (Homo sapiens, UniProt P09871) (assay: Human C1s enzyme assay). Settings: human complement C1s enzyme 1.16 nM, substrate Z-L-Lys-SBzl, A405; read-out: IC50 (Stars).
T1 construct: purified from human serum, Complement Technology, Inc; purchased Complement Technology, Inc; host or cells: human serum (plasma-derived native protein)
T1 sequence (P09871 438-688 limits assumed): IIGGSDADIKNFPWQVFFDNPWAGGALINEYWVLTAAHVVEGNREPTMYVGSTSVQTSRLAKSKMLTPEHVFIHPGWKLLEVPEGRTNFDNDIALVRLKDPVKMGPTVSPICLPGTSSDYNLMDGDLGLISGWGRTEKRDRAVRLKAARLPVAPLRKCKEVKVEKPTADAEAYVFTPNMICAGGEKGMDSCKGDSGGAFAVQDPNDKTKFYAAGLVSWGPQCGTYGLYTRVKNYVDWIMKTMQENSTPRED
T1 sequence (P09871 16-437 partner limits assumed): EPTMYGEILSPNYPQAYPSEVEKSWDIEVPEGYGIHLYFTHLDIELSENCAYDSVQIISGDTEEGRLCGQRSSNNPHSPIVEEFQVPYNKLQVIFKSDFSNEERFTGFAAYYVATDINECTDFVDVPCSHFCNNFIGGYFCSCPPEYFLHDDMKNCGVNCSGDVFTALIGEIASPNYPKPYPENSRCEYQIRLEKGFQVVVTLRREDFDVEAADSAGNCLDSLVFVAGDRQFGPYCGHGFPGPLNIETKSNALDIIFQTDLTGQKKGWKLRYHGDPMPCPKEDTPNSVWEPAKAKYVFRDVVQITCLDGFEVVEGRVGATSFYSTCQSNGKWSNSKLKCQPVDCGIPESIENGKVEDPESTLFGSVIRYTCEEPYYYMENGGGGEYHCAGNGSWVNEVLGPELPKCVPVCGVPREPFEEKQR
Type: biochemical
How it was run: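 Serum-purified human C1s (1.16 nM final) preincubated 5 min at room temperature with compound in 50 mM Tris, 1 M NaCl, pH 7.5. Z-L-Lys-SBzl and DTNB added at 100 μM each; A405 recorded every 30 s. IC50 from nonlinear regression of reaction rates versus compound concentration.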

| Structure (SMILES) | pIC50 |
| --- | --- |
| O=C(Cn1c(-c2ccccc2)ncc(NCCNC(=O)c2ccc3oc4ccccc4c3c2)c1=O)NCc1cc2cnccc2[nH]1 [Compound 35, N-(2-((1-(2-(((1H-pyrrolo[3,2-c]pyridin-2-yl)methyl)amino)-2-oxoethyl)-6-oxo-2-phenyl-1,6-dihydropyrimidin-5-yl)amino)ethyl)dibenzo[b,d]furan-2-carboxamide] | > 7.00 |
| O=C(Cn1cncc(NCc2cc3ccccc3o2)c1=O)NCc1cc2cnccc2[nH]1 [Compound 486, N-((1H-pyrrolo[3,2-c]pyridin-2-yl)methyl)-2-(5-((benzofuran-2-ylmethyl)amino)-6-oxopyr-imidin-1(6H)-yl)acetamide] | > 7.00 |
| O=C(Cn1c(-c2ccccc2F)ncc(N[C@H]2CCc3ccccc32)c1=O)NCc1cc2cnccc2[nH]1 [Compound 394, (S)—N-((1H-pyrrolo[3,2-c]pyridine-2-yl)methyl)-2-(5-((2,3-dihydro-1H-inden-1-yl)amino)-2-(2-fluorophenyl)-6-oxopyrimidin-1(6H)-yl)acetamide] | > 7.00 |
| Cc1ncc(NC(=O)c2csc(-c3ccccc3)n2)c(=O)n1CC(=O)NCc1cc2cnccc2[nH]1 [Compound 406, N-(1-(2-(((1H-pyrrolo[3,2-c]pyridine-2-yl)methyl)amino)-2-oxoethyl)-2-methyl-6-oxo-1,6-dihydropyrimidin-5-yl)-2-phenylthiazole-4-carboxamide] | 6.00 to 7.00 |
| O=C(Cn1c(-c2ccccc2)ncc(NCc2ccc3oc4ccccc4c3c2)c1=O)NCc1cc2c(s1)CCNC2 [Compound 142, 2-(5-((dibenzo[b,d]furan-2-ylmethyl)amino)-6-oxo-2-phenylpyrimidin-1(6H)-yl)-N-((4,5,6,7-tetrahydrothieno[3,2-c]pyridine-2-yl)methyl)acetamide] | > 7.00 |
| C[C@H](Nc1cncn(CC(=O)NCc2cc3cnccc3[nH]2)c1=O)c1ccc2oc3ccccc3c2c1 [Compound 265, (S)—N-((1H-pyrrolo[3,2-c]pyridine-2-yl)methyl)-2-(5-((1-(dibenzo[b,d]furan-2-yl)ethyl)amino)-6-oxopyrimidin-1(6H)-yl)acetamide] | > 7.00 |
| O=C(Cn1c(-c2ccccc2)ncc(NCCCc2ccc(OC(F)F)cc2)c1=O)NCc1cc2cnccc2[nH]1 [Compound 34, N-((1H-pyrrolo[3,2-c]pyridin-2-yl)methyl)-2-(5-((3-(4-(difluoromethoxy)phenyl)prop-yl)amino)-6-oxo-2-phenyl-pyrimidin-1(6H)-yl)acetamide] | > 7.00 |
| O=C(Cn1c(-c2ccccc2)ncc(NC(=O)NCC2CCCCC2)c1=O)NCc1cc2cnccc2[nH]1 [Compound 76, N-((1H-pyrrolo[3,2-c]pyridine-2-yl)methyl)-2-(5-(3-(cyclohexylmethyl)ureido)-6-oxo-2-phenylpyrimidin-1(6H)-yl)acetamide] | 6.00 to 7.00 |
| O=C(Cn1c(-c2ccc(S(F)(F)(F)(F)F)cc2)ncc(NCc2ccc3oc4ccccc4c3c2)c1=O)NCc1cc2cnccc2[nH]1 [Compound 297, N-((1H-pyrrolo[3,2-c]pyridin-2-yl)methyl)-2-(5-((dibenzo [b,d]furan-2-ylmethyl)amino)-6-oxo-2-(4-(pentafluoro-lambda6-sulfaneyl)phenyl)pyr-imidin-1(6H)-yl)acetamide] | > 7.00 |
| C[C@@H](Nc1cnc(-c2ccc(O[C@@H]3CO[C@H]4[C@@H]3OC[C@H]4O)cc2)n(CC(=O)NCc2cc3cnccc3[nH]2)c1=O)c1ccc2oc3ccccc3c2c1 [Compound 377, N-((1H-pyrrolo[3,2-c]pyridine-2-yl)methyl)-2-(5-(((R)-1-(dibenzo[b,d]furan-2-yl)ethyl)amino)-2-(4-(((3R,3aR,6R,6aR)-6-hydroxyhexahydrofuro[3,2-b]furan-3-yl)oxy)phenyl)-6-oxopyrimidin-1(6H)-yl)acetamide] | > 7.00 |
| O=C(Cn1c(-c2ccccc2)ncc(NC(=O)c2ccc(-c3ccccc3)s2)c1=O)Nc1nc2cnccc2s1 [Compound 235, N-(6-ox0-1-(2-oxo-2-(thiazolo [4,5-c]pyridin-2-ylamino)-ethyl)-2-phenyl-1,6-dihydro-pyrimidin-5-yl)-5-phenylthio-phene-2-carboxamide] | < 6.00 |
| O=C(Cn1c(-c2ccc(S(F)(F)(F)(F)F)cc2)ncc(NCc2ccc(-c3ccccc3)cc2)c1=O)NCc1cc2cnccc2[nH]1 [Compound 298, N-((1H-pyrrolo[3,2-c]pyridin-2-yl)methyl)-2-(5-(([1,1′-biphenyl]-4-ylmethyl)amino)-6-oxo-2-(4-(pentafluoro-lambda6-sulfaneyl)phenyl)pyr-imidin-1(6H)-yl)acetamide] | > 7.00 |
| O=C(Cn1c(N2CCOCC2)ncc(NC(=O)c2csc(-c3ccccc3)n2)c1=O)NCc1cc2cnccc2[nH]1 [Compound 411, N-(1-(2-(((1H-pyrrolo[3,2-c]pyridin-2-yl)methyl)amino)-2-oxoethyl)-2-morpholino-6-oxo-1,6-dihydropyrimidin-5-yl)-2-phenylthiazole-4-carbox-amide] | > 7.00 |
| O=C(Cn1c(-c2ccncc2)ncc(NCc2ccc3oc4ccccc4c3c2)c1=O)NCc1cc2cnccc2[nH]1 [Compound 289, N-((1H-pyrrolo[3,2-c]pyridin-2-yl)methyl)-2-(5-((dibenzo [b,d]furan-2-ylmethyl)amino)-6-oxo-2-(pyridin-4-yl)pyrimi-din-1(6H)-yl)acetamide] | > 7.00 |
| C[C@@H](Nc1cnc(N2CCC(F)(F)CC2)n(CC(=O)NCc2cc3cnccc3[nH]2)c1=O)c1ccc2oc3ccccc3c2c1 [Compound 379, (R)-N-((1H-pyrrolo[3,2-c]pyridin-2-yl)methyl)-2-(5-((1-(dibenzo[b,d]furan-2-yl)ethyl)-amino)-2-(4,4-difluoropiperi-din-1-yl)-6-oxopyrimidin-1(6H)-yl)acetamide] | < 6.00 |
| C[C@@H](Nc1cnc(N2CCC3(CC2)OCCO3)n(CC(=O)NCc2cc3cnccc3[nH]2)c1=O)c1ccc2oc3ccccc3c2c1 [Compound 382, (R)-N-((1H-pyrrolo[3,2-c]pyridin-2-yl)methyl)-2-(5-((1-(dibenzo[b,d]furan-2-yl)ethyl)-amino)-6-oxo-2-(1,4-dioxa-8-azaspiro[4.5]decan-8-yl)pyr-imidin-1(6H)-yl)acetamide] | > 7.00 |
| Cc1ncc(N[C@H](C)c2ccc3oc4ccccc4c3c2)c(=O)n1CC(=O)NCc1cc2cnccc2[nH]1 [Compound 378, (R)-N-((1H-pyrrolo[3,2-c]pyridin-2-yl)methyl)-2-(5-((1-(dibenzo[b,d]furan-2-yl)ethyl)-amino)-2-methyl-6-oxopyrimi-din-1(6H)-yl)acetamide] | < 6.00 |
| C[C@H](Nc1cnc(-c2ccccc2)n(CC(=O)NCc2cc3cnccc3[nH]2)c1=O)c1ccc2oc3ccccc3c2c1 [Compound 127, (S)—N-((1H-pyrrolo[3,2-c]pyridine-2-yl)methyl)-2-(5-((1-(dibenzo[b,d]furan-2-yl)ethyl)amino)-6-oxo-2-phenylpyrimidin-1(6H)-yl)acetamide] | > 7.00 |
| O=C(Cn1c(-c2ccccc2)ncc(NC(=O)c2ccc(-c3nccs3)cc2)c1=O)NCc1cc2cnccc2[nH]1 [Compound 172, N-(1-(2-(((1H-pyrrolo[3,2-c]pyridine-2-yl)methyl)amino)-2-oxoethyl)-6-oxo-2-phenyl-1,6-dihydropyrimidin-5-yl)-4-(thiazol-2-yl)benzamide] | > 7.00 |
| C[C@@H](Nc1cnc(N2CCCCC2)n(CC(=O)NCc2cc3cnccc3[nH]2)c1=O)c1csc(-c2ccccc2)n1 [Compound 463, (R)-N-((1H-pyrrolo[3,2-c]pyridin-2-yl)methyl)-2-(6-oxo-5-((1-(2-phenylthiazol-4-yl)-ethyl)amino)-2-(piperidin-1-yl)-pyrimidin-1(6H)-yl)acetamide] | 6.00 to 7.00 |
| O=C(Cn1c(-c2ccccc2)ncc(Nc2ccc(-c3ccccc3)cc2)c1=O)NCc1cc2cnccc2[nH]1 [Compound 224, N-((1H-pyrrolo[3,2-c]pyridin-2-yl)methyl)-2-(5-([1,1′-biphenyl]-4-ylamino)-6-oxo-2-phenylpyrimidin-1(6H)-yl)-acetamide] | 6.00 to 7.00 |
| Nc1cnc(-c2ccccc2)n(CC(=O)NCc2cc3cnccc3[nH]2)c1=O [Compound 317, N-((1H-pyrrolo[3,2-c]pyridin-2-yl)methyl)-2-(5-amino-6-oxo-2-phenylpyrimidin-1(6H)-yl)-acetamide] | > 7.00 |
| O=C(Cn1c(C2=CCCCC2)ncc(NCc2ccc3oc4ccccc4c3c2)c1=O)NCc1cc2cnccc2[nH]1 [Compound 241, N-((1H-pyrrolo[3,2-c]pyridin-2-yl)methyl)-2-(2-(cyclohex-1-en-1-yl)-5-((dibenzo[b,d]furan-2-ylmethyl)amino)-6-oxopyrimidin-1(6H)-yl)acet-amide] | > 7.00 |
| C[C@H](Nc1cnc(-c2cccs2)n(CC(=O)NCc2cc3cnccc3[nH]2)c1=O)c1ccc2oc3ccccc3c2c1 [Compound 286, (S)-N-((1H-pyrrolo[3,2-c]pyr-idin-2-yl)methyl)-2-(5-((1-(dibenzo[b,d]furan-2-yl)ethyl)-amino)-6-oxo-2-(thiophen-2-yl)pyrimidin-1(6H)-yl)acet-amide] | > 7.00 |
